Measurements: the CheMixHub ionic liquid set
± gives the uncertainty stated by the source.

Assay: xn = mol fraction of the nth substance listed
Conditions: 101 kPa

Compound CCCCCCCCCCCCCCCC[n+]1ccccc1.O=C([O-])c1ccccc1O + NCC(=O)NCC(=O)O + O has an electrical conductivity (293.15 K, x2 = 0.0009002, x1 = 3.6e-07) of 0.0016 ± 9.6e-05 S/m, an electrical conductivity (293.15 K, x2 = 0.0009002, x1 = 7.2e-07) of 0.00178 ± 0.00011 S/m and an electrical conductivity (293.15 K, x2 = 0.0009002, x1 = 1.09e-06) of 0.00197 ± 0.00012 S/m. It also gave an electrical conductivity (293.15 K, x2 = 0.0009002, x1 = 1.27e-06) of 0.00204 ± 0.00012 S/m, an electrical conductivity (293.15 K, x2 = 0.0009002, x1 = 1.63e-06) of 0.00215 ± 0.00013 S/m and an electrical conductivity (293.15 K, x2 = 0.0009002, x1 = 1.99e-06) of 0.00228 ± 0.00014 S/m. It also gave an electrical conductivity (293.15 K, x2 = 0.0009002, x1 = 2.36e-06) of 0.00242 ± 0.00015 S/m, an electrical conductivity (293.15 K, x2 = 0.0009002, x1 = 2.72e-06) of 0.00254 ± 0.00015 S/m and an electrical conductivity (293.15 K, x2 = 0.0009002, x1 = 3.08e-06) of 0.00261 ± 0.00016 S/m. It also gave an electrical conductivity (293.15 K, x2 = 0.0009002, x1 = 3.44e-06) of 0.00272 ± 0.00016 S/m, an electrical conductivity (293.15 K, x2 = 0.0009002, x1 = 3.81e-06) of 0.00285 ± 0.00017 S/m and an electrical conductivity (293.15 K, x2 = 0.0009002, x1 = 4.35e-06) of 0.00298 ± 0.00018 S/m. The electrical conductivity (293.15 K, x2 = 0.0009002, x1 = 4.71e-06) was 0.00311 ± 0.00019 S/m, the electrical conductivity (293.15 K, x2 = 0.0009002, x1 = 5.26e-06) was 0.00322 ± 0.00019 S/m and the electrical conductivity (293.15 K, x2 = 0.0009002, x1 = 5.62e-06) was 0.00334 ± 0.0002 S/m. For the same compound, the electrical conductivity (293.15 K, x2 = 0.001799, x1 = 1.8e-07) was 0.00253 ± 0.00015 S/m, the electrical conductivity (293.15 K, x2 = 0.001799, x1 = 3.6e-07) was 0.0026 ± 0.00016 S/m and the electrical conductivity (293.15 K, x2 = 0.001799, x1 = 5.5e-07) was 0.00269 ± 0.00016 S/m. The electrical conductivity (293.15 K, x2 = 0.001799, x1 = 7.3e-07) was 0.00282 ± 0.00017 S/m, the electrical conductivity (293.15 K, x2 = 0.001799, x1 = 9.1e-07) was 0.00291 ± 0.00017 S/m and the electrical conductivity (293.15 K, x2 = 0.001799, x1 = 1.28e-06) was 0.00301 ± 0.00018 S/m. It also gave an electrical conductivity (293.15 K, x2 = 0.001799, x1 = 1.46e-06) of 0.00313 ± 0.00019 S/m, an electrical conductivity (293.15 K, x2 = 0.001799, x1 = 1.82e-06) of 0.00325 ± 0.0002 S/m and an electrical conductivity (293.15 K, x2 = 0.001799, x1 = 2.19e-06) of 0.00335 ± 0.0002 S/m. The electrical conductivity (293.15 K, x2 = 0.001799, x1 = 2.55e-06) was 0.00347 ± 0.00021 S/m, the electrical conductivity (293.15 K, x2 = 0.001799, x1 = 2.92e-06) was 0.00355 ± 0.00021 S/m and the electrical conductivity (293.15 K, x2 = 0.001799, x1 = 3.46e-06) was 0.00371 ± 0.00022 S/m. For the same compound, the electrical conductivity (293.15 K, x2 = 0.001799, x1 = 3.83e-06) was 0.00379 ± 0.00023 S/m, the electrical conductivity (298.15 K, x2 = 0.0009002, x1 = 3.6e-07) was 0.0019 ± 0.00011 S/m and the electrical conductivity (298.15 K, x2 = 0.0009002, x1 = 7.2e-07) was 0.0021 ± 0.00013 S/m. For the same compound, the electrical conductivity (298.15 K, x2 = 0.0009002, x1 = 1.09e-06) was 0.00232 ± 0.00014 S/m, the electrical conductivity (298.15 K, x2 = 0.0009002, x1 = 1.27e-06) was 0.00241 ± 0.00014 S/m and the electrical conductivity (298.15 K, x2 = 0.0009002, x1 = 1.63e-06) was 0.00253 ± 0.00015 S/m. It also gave an electrical conductivity (298.15 K, x2 = 0.0009002, x1 = 1.99e-06) of 0.00269 ± 0.00016 S/m, an electrical conductivity (298.15 K, x2 = 0.0009002, x1 = 2.36e-06) of 0.00285 ± 0.00017 S/m and an electrical conductivity (298.15 K, x2 = 0.0009002, x1 = 2.72e-06) of 0.00298 ± 0.00018 S/m. For the same compound, the electrical conductivity (298.15 K, x2 = 0.0009002, x1 = 3.08e-06) was 0.00307 ± 0.00018 S/m, the electrical conductivity (298.15 K, x2 = 0.0009002, x1 = 3.44e-06) was 0.00319 ± 0.00019 S/m and the electrical conductivity (298.15 K, x2 = 0.0009002, x1 = 3.81e-06) was 0.00334 ± 0.0002 S/m. The electrical conductivity (298.15 K, x2 = 0.0009002, x1 = 4.35e-06) was 0.00348 ± 0.00021 S/m, the electrical conductivity (298.15 K, x2 = 0.0009002, x1 = 4.71e-06) was 0.00362 ± 0.00022 S/m and the electrical conductivity (298.15 K, x2 = 0.0009002, x1 = 5.26e-06) was 0.00374 ± 0.00022 S/m. It also gave an electrical conductivity (298.15 K, x2 = 0.001799, x1 = 1.8e-07) of 0.00303 ± 0.00018 S/m, an electrical conductivity (298.15 K, x2 = 0.001799, x1 = 3.6e-07) of 0.00311 ± 0.00019 S/m and an electrical conductivity (298.15 K, x2 = 0.001799, x1 = 5.5e-07) of 0.00321 ± 0.00019 S/m. The electrical conductivity (298.15 K, x2 = 0.001799, x1 = 7.3e-07) was 0.00336 ± 0.0002 S/m, the electrical conductivity (298.15 K, x2 = 0.001799, x1 = 9.1e-07) was 0.00345 ± 0.00021 S/m and the electrical conductivity (298.15 K, x2 = 0.001799, x1 = 1.28e-06) was 0.00357 ± 0.00021 S/m. For the same compound, the electrical conductivity (298.15 K, x2 = 0.001799, x1 = 1.46e-06) was 0.0037 ± 0.00022 S/m, the electrical conductivity (298.15 K, x2 = 0.001799, x1 = 1.82e-06) was 0.00384 ± 0.00023 S/m and the electrical conductivity (298.15 K, x2 = 0.001799, x1 = 2.19e-06) was 0.00397 ± 0.00024 S/m. It also gave an electrical conductivity (298.15 K, x2 = 0.001799, x1 = 2.55e-06) of 0.0041 ± 0.00025 S/m, an electrical conductivity (298.15 K, x2 = 0.001799, x1 = 2.92e-06) of 0.00419 ± 0.00025 S/m and an electrical conductivity (298.15 K, x2 = 0.001799, x1 = 3.46e-06) of 0.00437 ± 0.00026 S/m. For the same compound, the electrical conductivity (298.15 K, x2 = 0.001799, x1 = 3.83e-06) was 0.00447 ± 0.00027 S/m, the electrical conductivity (303.15 K, x2 = 0.0009002, x1 = 3.6e-07) was 0.00224 ± 0.00013 S/m and the electrical conductivity (303.15 K, x2 = 0.0009002, x1 = 7.2e-07) was 0.00248 ± 0.00015 S/m. The electrical conductivity (303.15 K, x2 = 0.0009002, x1 = 1.09e-06) was 0.00272 ± 0.00016 S/m, the electrical conductivity (303.15 K, x2 = 0.0009002, x1 = 1.27e-06) was 0.00282 ± 0.00017 S/m and the electrical conductivity (303.15 K, x2 = 0.0009002, x1 = 1.63e-06) was 0.00296 ± 0.00018 S/m. The electrical conductivity (303.15 K, x2 = 0.0009002, x1 = 1.99e-06) was 0.00318 ± 0.00019 S/m, the electrical conductivity (303.15 K, x2 = 0.0009002, x1 = 2.36e-06) was 0.00336 ± 0.0002 S/m and the electrical conductivity (303.15 K, x2 = 0.0009002, x1 = 2.72e-06) was 0.0035 ± 0.00021 S/m. For the same compound, the electrical conductivity (303.15 K, x2 = 0.0009002, x1 = 3.08e-06) was 0.0036 ± 0.00022 S/m, the electrical conductivity (303.15 K, x2 = 0.0009002, x1 = 3.44e-06) was 0.00373 ± 0.00023 S/m and the electrical conductivity (303.15 K, x2 = 0.0009002, x1 = 3.81e-06) was 0.00389 ± 0.00023 S/m. It also gave an electrical conductivity (303.15 K, x2 = 0.0009002, x1 = 4.35e-06) of 0.00404 ± 0.00024 S/m, an electrical conductivity (303.15 K, x2 = 0.0009002, x1 = 4.71e-06) of 0.00422 ± 0.00025 S/m and an electrical conductivity (303.15 K, x2 = 0.0009002, x1 = 5.26e-06) of 0.00435 ± 0.00026 S/m.
